For 6 compounds, IC50 results are on record in BindingDB's records for doi:10.1016/j.bmcl.2012.03.106 (Syngenta Crop Protection Muenchwilen, 2012).

A word on the IC50: it is the concentration needed to halve the response being measured.

The test in a line: Displacement of [3H]-Tritium-N-(4-chloro-2-methyl-6-(methylcarbamoyl)phenyl)-1-(3-chloropyridin-2-yl)-3-(trifluoromethyl)-1H-pyrazole-5-carboxamide from Myzus persicae (green peach aphid) ryanodine receptor. A general note: Loss of bound radioactivity is the signal in a displacement assay; it reports binding, not function.

`Cc1cc(C#N)cc(C(=O)NC(C)(C)CS(C)(=N)=O)c1NC(=O)c1cc(Br)nn1-c1ncccc1Cl` (stereo unspecified) yielded a half-inhibitory concentration (IC50) of 18.5 µM.

`Cc1cc(C#N)cc(C(=O)NC(C)(C)CS(C)(=O)=NC#N)c1NC(=O)c1cc(Br)nn1-c1ncccc1Cl` (stereo unspecified) showed an IC50 of 8.09 µM.

Turning to `Cc1cc(Cl)cc(C(=O)NC(C)(C)CS(C)(=O)=NC#N)c1NC(=O)c1cc(C(F)(F)F)nn1-c1ncccc1Cl` (stereo unspecified), the IC50 stood at 4.86 µM.

Consider `CNC(=O)c1cc(Cl)cc(C)c1NC(=O)c1cc(Br)nn1-c1ncccc1Cl` [3-bromo-N-(4-chloro-2-methyl-6-(methylcarbamoyl)phenyl)-1-(3-chloropyridin-2-yl)-1H-pyrazole-5-carboxamide], for which the 50% inhibitory concentration (IC50) amounted to 4.13 µM.

Compound `Cc1cc(C(F)(C(F)(F)F)C(F)(F)F)ccc1NC(=O)c1cccc(I)c1C(=O)NC(C)(C)CS(C)(=O)=O` [CHEBI:38798] yielded a half-inhibitory concentration (IC50) of 83.5 µM.

In turn, `CNC(=O)c1cc(C#N)cc(C)c1NC(=O)c1cc(Br)nn1-c1ncccc1Cl` [CYANTRANILIPROLE] yielded an IC50 of 2.11 µM.
